Read-outs that look alike come from different tables or passages of the source.

One test deals with P. falciparum Dd2. The test is described as follows: SYBR Green I-based fluorescence assay, intraerythrocytic growth inhibition. In kind it is cell-based, Plasmodium falciparum. The source says:
(§1) In the pursuit to discover next generation of antimalarials from novel areas of chemical space, a large library of diverse fungi was screened to discover secondary metabolites active against malaria parasite. […] The Cichewicz fungal collection contains tens of thousands of fungal isolates that were secured from diverse habitats and ecological niches across the United States. It is believed that fungal secondary metabolites, which are underexplored for antimalarial drug discovery, provide a unique opportunity to explore medicinally relevant, but untapped chemical space for the discovery of essential malaria therapeutics. Libraries of 750 pure compounds, and of 460 extracts obtained from diverse fungal sources have been screened for their ability to inhibit intraerythrocytic growth of chloroquine-resistant P. falciparum Dd2 using a SYBR Green I-based fluorescence assay. As a counter screen, the cytotoxicity of the top ten extracts in HepG2 cells was evaluated using the MTS ((3-(4,5 dimethylthiazol-2-yl)-5-(3-carboxymethoxyphenyl)-2-(4-sulfophenyl)-2H-tetrazolium, inner salt) cell proliferation assay. This screening has identified potent and selective novel antiplasmodial compounds. These unique pharmacophores from wide areas of chemical space would provide chemical starting points to develop lead compounds for drugs against malaria.
Ten millimolar compound stocks in DMSO were diluted by ½, ⅕, and/or 1/10 fold dilutions in ultrapure water or RPMI 1640. Varying concentrations of compound were added to culture at a 1% parasitemia and 2% hematocrit in 96-well black plates. Assay conditions maintained maximum DMSO concentrations less than 0.125% per dilution. Positive (baseline 0% growth) controls consisted of Chloroquine at 1 μM final concentration. Following 72 h incubation at 37° C. in 5% CO2, dilution plates were frozen at −80° C. for a minimum of 30 minutes. Dilution plates were allowed to thaw followed by lysis treatment and SYBR Green I incorporation. DNA quantification was determined using a fluorescence reading on a Synergy H4 multimode plate reader set at 485 nm excitation and 530 nm emission as previously reported (Roberts, Iyamu et al. 2016). EC50 was calculated from a dose response curve that was generated from a concentration range of 0-10 μM using GraphPad Prism v5.0.
Different dilutions of the compound/fraction in 1 μl of the culture medium were added to 99 μl of P. falciparum culture at a 1% parasitemia and 2% hematocrit in 96-well plates. Maximum DMSO concentration in the culture never exceeded 0.125%. Chloroquine at 1 μM was used as a positive control to determine the baseline value. Following 72 hours incubation at 37° C., the plates were frozen at −80° C. After thawing, 100 μL of lysis buffer (with SYBR Green I dye 1:10,000) was added to each well and plates were incubated at room temperature for 30 minutes prior to reading.
Culture was maintained following a modified Trager and Jensen protocol.^xxv Multi-drug resistant P. falciparum line Dd2 was grown in RPMI 1640 supplemented with 25 mM HEPES pH 7.4, 26 mM NaHCO3, 2% dextrose, 15 mg/L hypoxanthine, 25 mg/L gentamycin and 0.5% Albumax II in human A+ erythrocytes. Culture was maintained at 4% hematocrit at 37° C. with 5% CO2.
Plates were subsequently frozen at −80° C. to facilitate lysis. After thawing, plates were incubated with 1×SYBR Green I in lysis buffer (20 mM Tris-HCl, 0.08% saponin, 5 mM EDTA, 0.8% Triton X-100) for 45-60 min at room temperature. Fluorescence was measured at an excitation wavelength 485 nm, emission 530 nm in a Synergy Neo2 multi-mode reader (BioTek, Winsooki, Vt.). RFUs were normalized based on chloroquine treated and no treatment controls. For all compounds listed, serial dilutions were prepared in RPMI with final assay conditions of 0.2% DMSO or below.

Another test concerns HepG2 human hepatocytes. The test is described as follows: MTS cytotoxicity assay in HepG2 cells (counter screen, selectivity). The format is cell-based. Particulars: for Selectivity Index: Hep G2 cell EC50 : P. falciparum EC50, pure compound library hits.
Text: as §1
Cross selectivity for human cells was determined using HepG2 human hepatocytes and an MTS (3-(4,5-Dimethylthiazol-2-yl)-5-(3-carboxymethoxyphenyl)-2-(4-sulfophenyl)-2H-tetrazolium) based cytotoxicity assay. After seeding 2,250 cells per well into 384-well microtiter plates, cells were incubated for 24 h. Next, serial dilutions of compounds were added to the seeded plates and incubated for additional 48 h at 37° C., and 5% CO2. Zero percent growth control wells were incubated with 5% Triton X-100 for 5 min prior to MTS addition and incubated for 4 h at identical growth conditions. Absorbance was then read at 490 nm in a Synergy Neo2 multi-mode reader (BioTek, Winsooki, Vt.) and values were normalized based on detergent lysed and no treatment controls.

Another test deals with Histone H4. The test is described as follows: Western blot of parasite extracts with anti-acetyl histone 4 antibody. The format is cell-based, Plasmodium. As to conditions: mixed stage culture, EC90 concentrations, 4 hrs. The procedure:
Mixed stage culture was incubated with EC90 concentrations of 130134 Analog 2 and PF1070A for 4 hrs and cell free parasite extracts were subjected to western blot analysis using anti-acetyl histone 4 antibody.
Of the hits found, several have known targets in other model systems, allowing us to expedite target analysis. One such compound is Chlamydocin, a known Class I HDAC inhibitor. Western blot analysis of Plasmodium extracts confirms that analogs of this compound causes hyperacetylation of histone 4 and is suspected to target Plasmodium HDAC1.

Another test relates to trophozoites. The test is described as follows: IFA and western blot for acetylation after treatment at 6 HPI. In kind it is cell-based. Particulars: culture followed until 54 HPI. The text has this: Culture followed until 54 HPI. Scale bar represents 1 micron.
(§2) Culture followed until 54 HPI. Scale bar represents 1 micron. FIG. 10(B) is a western blot showing acetylation following treatment at 6 HPI with 137LJ57K, initial impure extract of 137LJ57K1.

For a further test, the target named is PfHDAC1 (Plasmodium falciparum, UniProt Q7K6A1). Kind of test: PfHDAC1 assay. The format is biochemical.
Text: as §2
FIGS. 17-20 provide multiple versions of cyclic tetrapeptides along with their EC50s for various noted assays including Pf, Hep G2 and PfHDAC1 assays

The next test has as its system P. falciparum. Particulars: literature; cited from earlier work.
The mark [1] stands for this setting: Plasmodium falciparum, DD2, 72 h.
The mark [2] stands for this setting: Plasmodium falciparum, Top hits from pure compound library, chloroquine-resistant P. falciparum Dd2, 72 h, read-out: EC50.

Chain of PfHDAC1 (Q7K6A1 entry or part of it): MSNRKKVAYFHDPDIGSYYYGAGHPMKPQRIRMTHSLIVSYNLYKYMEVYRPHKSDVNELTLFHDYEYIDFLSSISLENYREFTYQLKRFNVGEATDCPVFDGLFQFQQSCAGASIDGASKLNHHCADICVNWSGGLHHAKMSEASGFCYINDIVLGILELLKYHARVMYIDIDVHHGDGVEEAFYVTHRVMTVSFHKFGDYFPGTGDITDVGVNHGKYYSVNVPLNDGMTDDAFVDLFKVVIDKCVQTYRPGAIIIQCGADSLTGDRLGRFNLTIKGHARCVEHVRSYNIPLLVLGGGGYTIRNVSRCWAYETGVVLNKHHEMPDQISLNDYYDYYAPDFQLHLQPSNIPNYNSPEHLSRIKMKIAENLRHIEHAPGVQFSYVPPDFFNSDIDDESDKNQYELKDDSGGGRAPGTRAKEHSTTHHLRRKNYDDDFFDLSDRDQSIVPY

`CC1NC(=O)C(CCCCCC(=O)C2CO2)NC(=O)C2CCCN2C(=O)C(Cc2ccccc2)NC1=O` (centres unmarked) [130134 Analog 1, 1-Alanine-chlamydocin]: the EC50 in the test with P. falciparum Dd2 (setting [1]) came to 9 nM. Further, the “Selectivity Index” value with HepG2 human hepatocytes was 3. In the test with Histone H4, the “hyperacetylation of Histone H4” value is given as “causes hyperacetylation of Histone H4”.
Regarding `CCC(C)C1NC(=O)C(Cc2ccccc2)NC(=O)C(CCCCCC(=O)C2CO2)NC(=O)C2CCCCN2C1=O` (centres unmarked) [130134 Analog 2, PF1070A], the concentration giving a half-maximal response (EC50) in the test on P. falciparum Dd2 (setting [1]) was 37 nM. Also, the EC50 in the test on P. falciparum Dd2 (Plasmodium falciparum, DD2, read-out: EC50 against multidrug resistant malaria) turned out to be 37 nM. In the test with HepG2 human hepatocytes, the “selectivity (in words)” value is on record as “selective” and the “Selectivity Index” value is recorded as over 23. In the test with Histone H4, the “hyperacetylation of Histone H4” value is “causes hyperacetylation of Histone H4”.
In the case of `CCC(C)C1NC(=O)C(Cc2ccccc2)NC(=O)C(CCCCCC(=O)C2CO2)NC(=O)C2CCCCN2C1=O` (centres unmarked) [Compound 137LJ57K1], the concentration giving a half-maximal response (EC50) in the test with P. falciparum Dd2 (Plasmodium falciparum, DD2, read-out: Dd2 EC50 (nM)) is 88 nM; in the test on HepG2 human hepatocytes (Homo sapiens, HepG2), 13100 nM; on PfHDAC1, under 0.2 nM. Besides, in the test with trophozoites, the hyperacetylation entry is “hyperacetylation during trophozoite stage”.
Regarding `C/C1=C\[C@H](C)C[C@H](C)CC(=O)C[C@H](c2ccc(O)cc2)NC(=O)[C@@H](Cc2c(Br)[nH]c3ccccc23)N(C)C(=O)[C@H](C)NC(=O)[C@@H](C)C1` [Compound 120030], in the test on P. falciparum Dd2 (setting [1]), the EC50 stood at 271 nM. Moreover, the “Selectivity Index” value in the test on HepG2 human hepatocytes is recorded as over 92.25.
The like results for `C=C1[C@@H](O)[C@@H]2O[C@]3(CC[C@H](/C=C/[C@@H](C)[C@@H]4CC(C)=C[C@@]5(O[C@H](C[C@@](C)(O)C(=O)O)CC[C@H]5O)O4)O3)CC[C@H]2O[C@@H]1[C@@H](O)C[C@H](C)[C@H]1O[C@@]2(CCCCO2)CC[C@H]1C` [Compound 120033] were, in that order, 55 nM and over 77.
Take `COC1=CC(c2ccc[nH]2)=N/C1=C/NCC(C)C` [Compound 120036]: in the test with P. falciparum Dd2 (setting [2]), the EC50 stood at 180 nM. For the same compound, the “Selectivity Index” value with HepG2 human hepatocytes came out at 57.31.
`Oc1cc(O)c2c(c1)O[C@H](c1ccc(O)c(O)c1)[C@@H](O)C2` [Compound 120051]: the EC50 with P. falciparum Dd2 (setting [2]) was 47 nM. Besides, in the test on HepG2 human hepatocytes, the “Selectivity Index” value was determined as 11.44.
Consider `C[C@@]12OC(=O)[C@]1(C(O)[C@@H]1C=CCCC1)NC(=O)[C@@H]2CCCl` (some centres unmarked) [Compound 120066], for which the EC50 in the test with P. falciparum Dd2 (setting [1]) is 47 nM. In addition, the “Selectivity Index” value in the test with HepG2 human hepatocytes is given as 290.28.
Take `CC[C@H]1/C=C/C=C/C[C@@H](C)[C@H](O)[C@@](C)(O)C(=O)[C@@H](C)[C@H](O)[C@@H](C)C(=O)[C@@H](C)[C@H](O)[C@@H](C)/C=C/C(=O)O[C@@H]2[C@H](C)[C@H](CC1)O[C@]1(CC[C@H](C)[C@H](C[C@@H](C)O)O1)[C@H]2C` [Compound 120086]: the EC50 in the test on P. falciparum Dd2 (setting [2]) was determined as 361 nM. In addition, in the test on HepG2 human hepatocytes, the “Selectivity Index” value was found to be 14.62.
Take `O=C(c1cc(Cl)c(Cl)[nH]1)c1c(O)cccc1O` [Compound 130115]: the concentration giving a half-maximal response (EC50) in the test with P. falciparum Dd2 (setting [1]) is 491 nM. Further, in the test with HepG2 human hepatocytes, the “Selectivity Index” value was over 32.
For `CC(C)[C@H]1CC[C@@](O)(CCl)[C@H]2C(=O)OCC(C(=O)O)=C[C@H]12` [Compound 130129] the same measures were 361 nM and 3.
With `CC(C)C1CCC(O)(CCl)C2C(=O)OCC(C(=O)O)=CC12` (centres unmarked) [Compound 130130], the half-maximal effective concentration (EC50) with P. falciparum Dd2 (setting [1]) worked out at 469 nM. Moreover, the “Selectivity Index” value in the test on HepG2 human hepatocytes is 3.
For the compound `CC(C)[C@H]1CC[C@@](O)(COC(=O)/C(=C/[C@@H]2[C@@H](C(C)C)CCC3(O)COC(=O)[C@@H]23)CO)[C@H]2C(=O)OCC(C(=O)O)=C[C@H]12` (some centres unmarked) [Compound 130131], the EC50 in the test with P. falciparum Dd2 (setting [2]) was 367 nM. The “Selectivity Index” value with HepG2 human hepatocytes is over 54.
As for `CC[C@H](C)[C@@H](C(=O)O[C@@H](CC(C)C)C(=O)N[C@@H](CC(C)C)C(=O)N[C@@H](C)/C=C/C(=O)N1C(=O)C=C(OC)[C@@H]1C)N(C)C` [gallinamide A], the half-inhibitory concentration (IC50) with P. falciparum is 8400 nM.
As for Chlamydocin [Compound 130134], the EC50 in the test on P. falciparum Dd2 (Top hits from pure compound library, chloroquine-resistant P. falciparum Dd2, 72 h, read-out: EC50) was found to be 24.7 nM. The “Selectivity Index” value in the test with HepG2 human hepatocytes is 7.

Source of the values: patent US11230569B2, “Antiplasmodial compounds” (UNIVERSITY OF CENTRAL FLORIDA RESEARCH FOUNDATION, INC., priority 2018, dated 2022).
